The values that follow are results of earlier work, collected in patent US20250261683A1, “ORAL COMPOSITION COMPRISING ENCAPSULATED PH ADJUSTING AGENT” (NICOVENTURES TRADING LIMITED, priority 2022, published 2025).

The conditions of data set [1]: descriptive statement.
For data set [2] the following is noted: descriptive statement; isomerizes to trans-bixin.

Regarding `CC(/C=C/C=C(C)/C=C/C(=O)O)=C\C=C\C=C(C)\C=C\C=C(C)\C=C\C(=O)O` (stereo in doubt) [norbixin, (2E,4E,6E,8E,10E,12E,14E,16E,18E)-4,8,13,17-tetramethylicosa-2,4,6,8,10,12, 14,16, 18-nonaenedioic acid], the solubility in water result in data set [1] is on record as “water-soluble”.

As to `COC(=O)/C=C/C(C)=C\C=C\C(C)=C\C=C\C=C(C)\C=C\C=C(C)\C=C\C(=O)O` [bixin, (2E,4E,6E,8E,10E,12E,14E,16Z,18E)-20-methoxy-4,8,13,17-tetramethyl-20-oxoicosa-2,4,6,8,10,12,14,16,18-nonaenoic acid], in data set [1], the “solubility in fats and alcohols” value is reported as “soluble”; the solubility in water result was “insoluble”. Moreover, the “chemical stability when isolated” value in data set [2] is given as “chemically unstable”.
